Reference: patent US6124275A, “Methods and compositions for controlling a pest population” (priority 1999, dated 2000)
Where two headings read alike, the source gives them in different places.

Assays:
[1] = tested on: American cockroach; details: for Time (to 100% lethality): 5.0 wt % ES, 1.0 wt % T20
Experimental: (§1) The objective of the experiment was to evaluate the general effectiveness of ES in an emulsion formulation against the American cockroach.
(§2) An emulsion of ES (Sigma) was prepared at 5.0 wt % ES and 1.0 wt % T20. A 1 wt % T20 solution was also prepared as a formula blank treatment. A negative control of no treatment was included in the bioassay. The three treatments were applied to three replications of 4 cockroaches each.
(§3) The treatments were applied as sprays using a standard hand held 250 ml sprayer. For each direct treatment, 4 cockroaches were each sprayed to run-off on filter paper fitted to the bottom of a 1 liter stainless steel jar. Cockroaches were then transferred to 250 ml flasks for observation. For residuality/reintroduction bioassays, the treated filter papers were removed from direct treatment spray jars and allowed to air dry. After drying, the filter papers were replaced in jars and cockroaches introduced for observation.

[2] = tested on: American cockroach; test: whole plant or invertebrate; details: Periplaneta americana, topical, read-out: highest observed mortality
Experimental: as §1, §2, §3

[3] = tested on: two-spotted spider mite; test: Pesticidal efficacy, two-spotted spider mite (Example 8); details: for mortality at 5 %: Tetranychus urticae, topical, read-out: highest observed mortality
Experimental: (§4) Plants (chrysanthemum and minirose) were infested with melon aphid and two-spotted spider mites and sprayed to run-off using a standard 250 ml hand-held sprayer. Mortality was recorded at 24 HPA and 48 HPA.

[4] = tested on: melon aphid; test: Pesticidal efficacy, melon aphid (Example 8); details: for mortality at 5 % / mortality at 1 %: Aphis gossypii, topical, read-out: highest observed mortality
Experimental: as §4

[5] = tested on: western flower thrips; test: whole plant or invertebrate; details: Frankliniella occidentalis, topical, 72 h, read-out: highest observed mortality
[6] = tested on: German cockroach; test: whole plant or invertebrate; details: Blattella germanica, topical, 24 h, read-out: highest observed mortality
Experimental: (§5) All experiments were conducted with a hand held sprayer at an application rate equivalent to 100 gallons/acre. […] Specific treatment conditions were as follows: pharaoh ants were contained in paper cups with a cloth mesh enclosure at the top and sprayed from a distance of 12 inches; honey bees were contained in wire mesh cages with Petri dishes as end enclosures and sprayed from a distance of 24 inches; German cockroaches and houseflies were contained in Peet-Grady chambers and sprayed from a distance of 24 inches; and cat fleas were delivered onto carpet disks and sprayed from an un-reported distance.

[7] = tested on: Argentine ants; test: Repellency to Argentine ants; format: in vivo, Argentine ant; details: at one week
[8] = tested on: arthropods; test: Insecticidal activity on arthropods (general statement); format: in vivo; details: words
[9] = tested on: two-spotted spider mites; format: in vivo, Tetronmychua urticae; details: for efficacy against two-spotted spider mites: 1.0% BS, 0.2% T20, words
[10] = tested on: leafminer; details: for highest observed mortality: leafminer, in vivo, topical or ocular, 480 h
[11] = tested on: silverleaf whiteflies; details: for highest observed mortality: silverleaf whitefly, in vivo, topical or ocular, 120 h
[12] = until 25 wt % concentration; cited from earlier work
[13] = tested on: honey bee; test: Pesticidal efficacy, honey bee (Example 8); format: in vivo; details: Apis mellifera, topical, T20 carrier, 24 hours post application, read-out: highest observed mortality
[14] = tested on: melon aphids; test: whole plant or invertebrate; format: in vivo, Aphis gossypii; details: for efficacy against melon aphids: 1.0% BS, 0.2% T20, words
[15] = tested on: plants; test: Phytotoxicity to plants (general statement); format: in vivo; details: words
[16] = tested on: cat flea; test: Pesticidal efficacy, cat flea (Example 8); details: for mortality at 5 wt %: Ctenocephalides felis, topical, 24 h, read-out: highest observed mortality
Experimental: as §5
(§6) In evaluating efficacy against structural pests, BS was tested on pharaoh ant and cat flea at two concentrations, 1 wt % and 5 wt %.

[17] = tested on: chrysanthemums; design: species or system chrysanthemum; details: in vivo
From the text: Both formulations were applied via direct contact spray. […] The phytotoxicity of plants were also observed.

[18] = tested on: Argentine ant; test: Pesticidal efficacy, Argentine ant (Example 8)
[19] = tested on: housefly; test: whole plant or invertebrate; details: Musca domestica, topical, 24 h, read-out: highest observed mortality
Experimental: as §5

[20] = tested on: pharaoh ant; details: for highest observed mortality: in vivo, topical or ocular, 24 h
Experimental: as §5, §6

[21] = tested on: cladosporium; test: Evaluation against the fungus cladosporium; details: 1 wt % formulation
[22] = tested on: melon aphids; test: whole plant or invertebrate; details: Aphis gossypii, topical, 24 h, read-out: Total Mortality
[23] = tested on: melon aphids; test: whole plant or invertebrate; details: Aphis gossypii, topical, 24 h, read-out: Total Mortality; remark: listed apart in the source
[24] = tested on: melon aphids; details: words
[25] = tested on: rats; details: Merck Index; cited from earlier work
[26] = tested on: western flower thrips; details: words
[27] = tested on: melon aphids; details: 1.5% BB, 0.3% T80; words
[28] = tested on: two-spotted spider mites; details: words
[29] = tested on: roses; details: in vivo
From the text: Both formulations were applied via direct contact spray.
Both were applied via direct contact spray.

[30] = tested on: E. hirsti (chiggar mite) larvae; details: cloth treated with ethanol solution of 5% benzyl benzoate, cited from earlier work
[31] = tested on: melon aphids; test: whole plant or invertebrate; details: Aphis gossypii, topical, read-out: Total Mortality
[32] = tested on: Western flower thrips (larvae and pupae); test: whole plant or invertebrate; details: Frankliniella occidentalis, topical, read-out: Total Mortality
[33] = tested on: human head lice eggs; details: 22.5 g as a thin layer on the eggs; cited from earlier work
[34] = tested on: melon aphids; details: 1.5% BB, 0.5% T80; words
[35] = tested on: Western flower thrips (larvae and pupae); details: 1.0% BB, 0.1% T80, words
[36] = tested on: two-spotted spider mites; details: 1.0% BB, 0.1% T80; words

## CCOC(=O)c1ccccc1O [ES, ethyl salicylate]
[1]; 5 wt %, direct spray, words
  lethality on American cockroach: lethal
[1]; Direct spray
  Time (to 100% lethality): 3 to 7 min
[1]; Residuality/Reintroduction
  Time (to 100% lethality): 60 to 120 min
[1]; american cockroach, in vivo
  Lethality: 100%
[1]; both direct spray and residual/reintroduction
  time, lethal to all test cockroaches: ≤ 2 h
[2]
  mortality at 5 wt %: 100%
[3]
  mortality at 5 %: 90%
[4]
  mortality at 5 %: 90%

## O=C(OCc1ccccc1)c1ccccc1O [BS, benzyl salicylate]
[5]
  mortality at 0.5 %: 36%
[6]
  mortality at 1.1 %: 0%
[7]
  repellant to Argentine ants: repellant to Argentine ants at one week
[8]
  insecticidal activity: clearly shown to be insecticidal
[9]
  efficacy against two-spotted spider mites: clearly indicate the efficacy of BS against melon aphids and two-spotted spider mites
[9]; listed as benzyl salicylate
  efficacy against two-spotted spider mites: effective in controlling aphids and spider mites
[9]; in vivo, topical or ocular
  Total Mortality: 86.9%
[10]
  highest observed mortality: 25%
[11]
  highest observed mortality: 70%
[12]
  contact dermatitis: does not cause contact dermatitis (until 25 wt % concentration)
[13]; 1.0 wt % AC
  mortality at 1 %: 78%
[14]
  efficacy against melon aphids: clearly indicate the efficacy of BS against melon aphids
[14]; listed as benzyl salicylate
  efficacy against melon aphids: effective in controlling aphids
[14]; Aphis gossypii, topical, read-out: Total Mortality
  mortality at 1 %: 89.3%
[15]
  phytotoxicity: can be phytotoxic to some plants
[16]; 5 wt %, words
  effective on cat flea: effective on both pests
[16]
  mortality at 5 wt %: 100%
[17]
  phytotoxicity, chrysanthemums: severe damage from leaf tips moving inwards, and some leaf damage beginning from bottom leaves and moving upwards, with the newest leaves remaining unaffected
[4]
  mortality at 1 %: 98%
[4]; words
  dose response, melon aphid: activity increased with AC concentration only on melon aphid
[18]; 1.0 wt % AC, T20 carrier
  highest observed mortality: 99%
[18]; 2, 3 and 5 wt %, words
  LC100 at higher concentrations: held at 2 wt %, 3 wt % and 5 wt %
[18]; AC concentration
  LC100: 1 wt %
[18]; words
  activity on Argentine ants: excellent activity
  dose response, Argentine ants: good dose response
[19]
  mortality at 0.1 %: 47%
[20]; 5 wt %, words
  effective on pharaoh ant: effective on both pests
[20]
  highest observed mortality: 89%

## CCCCOC(=O)c1ccccc1C(=O)OCc1ccccc1 [benzyl butyl phthalate]
[3]
  mortality at 5 %: 50%
[4]
  mortality at 5 %: 70%

## COC(=O)c1ccccc1O [methyl salicylate]
[3]
  mortality at 5 %: 90%
[4]
  mortality at 5 %: 90%

## O=C(Oc1ccccc1)c1ccccc1O [phenyl salicylate]
[3]
  mortality at 5 %: 90%
[21]
  effect against the fungus cladosporium: effective at both inhibiting fungal growth and at killing the fungus
[4]
  mortality at 5 %: 90%

## O=C(OCc1ccccc1)c1ccccc1 [BB, benzyl benzoate]
[5]
  mortality at 0.25 %: 14%
[6]
  mortality at 1 %: 0%
[22]
  mortality at 1.5 %: 89.4%
[23]
  mortality at 2.5 %: 90.3%
[24]; 2.5% BB, 0.1% T80
  efficacy against melon aphids: clear efficacy against melon aphids
[24]; summary of Examples 1-7
  controlling aphids: effective for controlling aphids
[25]
  LD50: 1,830 mg/Kg
[10]
  highest observed mortality: 24%
[10]; words
  dose response, leafminer: Good dose response
[11]
  highest observed mortality: 39%
[11]; words
  dose response, silverleaf whiteflies: Good dose response
[26]
  dose response, western flower thrips: all except for western flower thrips
[27]
  efficacy against melon aphids: clear efficacy against melon aphids
[28]; 2.5% BB, 0.1% T80
  efficacy against two spotted spider mites: clearly indicate efficacy of the BB formulation against two spotted spider mites
[28]; summary of Examples 1-7
  controlling spider mites: effective for controlling aphids, thrips, and spider mites
[13]; 0.3 wt % AC
  mortality at 0.3 %: 68%
[16]
  mortality at 5 wt %: 93%
[17]
  phytotoxicity of chrysanthemums: None of the treatments resulted in phytotoxicity of chrysanthemums
  phytotoxicity to chrysanthemums: no phytotoxicity to chrysanthemums
  phytotoxicity, chrysanthemum: no phytotoxicity for 5 days, only the lowest leaves showed two necrotic spots but no serious damage
  phytotoxicity, chrysanthemums: no phytotoxicity
[29]
  phytotoxicity observed on the roses: no phytotoxicity observed
[4]
  mortality at 1 %: 74%
[4]; words
  dose response, melon aphid: Good dose response
[30]; <3 minutes
  knockdown of test larvae: 100%
[30]
  time to 100% knockdown: < 3 min
[31]
  mortality at 1.5 %: 85%
[32]
  mortality at 1 %: 85.7%
[33]
  killing human head lice eggs: killing human head lice eggs
[19]
  mortality at 0.1 %: 35%
[20]
  highest observed mortality: 21%
[34]
  effect on melon aphids: killed the aphids in their tracks; the aphids did not desiccate, instead appeared preserved
[35]
  efficacy against Western flower thrips: clear efficacy against Western flower thrips
[35]; listed as benzyl benzoate
  efficacy against Western flower thrips: effective for controlling aphids, thrips
[36]
  efficacy against two-spotted spider mites: indicate efficacy of the benzyl benzoate formulation against two-spotted spider mites

## CC(=O)OCc1ccccc1 [benzyl acetate]
[15]
  phytotoxicity: non-phytotoxic
[3]
  mortality at 5 %: ≥ 90%
[3]; words
  activity on 2-spotted spider mites: high activity
[4]
  mortality at 5 %: ≥ 90%
[4]; words
  activity on aphid: high activity
